Drawing on patent US7005139B2, “Compositions and methods for the targeted delivery of agents to treat liver cancer” (Hong Kong University of Science and Technology, priority 2001, dated 2006), this text covers tumor growth inhibition for 1 compound.

Structures are written as SMILES.

This test deals with HepG2 tumors. Nature of the test: Anti-tumor efficacy in HepG2-tumor bearing nude mice. As to conditions: s.c. HepG2 tumors, i.v. 1 mg/kg dox equivalents every other day from day 2, tumor volume, FIG. 4. Format: in vivo, nu/nu BALB/c nude mice. How it is done:
Nude mice were inoculated s.c. with 4×10^6 HepG2 cells on day 0. On day 2, groups of five mice were injected intravenously with 1 mg/kg dox equivalents of D, DL or DLG. The control group received injections of saline (S). Injections were carried out every other day. The tumor size was measured weekly and the volume calculated using the formula 0.52×L×W×H. Each point represents the mean volume from each group of 5 mice.
Nude mice were inoculated s.c. with 4×10^6 HepG2 cells on day 0. On day 2, groups of five mice were injected intravenously with 1 mg/kg dox equivalents of D, DL or DLG. The control group received injections of saline. Injections were carried out every other day. All mice were sacrificed on day 35. The tumors were removed and weighted. Each column represents the mean ±s.d. (n=5). *p<0.05 statistically significant difference as compared to control (student's t-test).
Nude mice (body weight 20–25 g; 6–8 weeks) were inoculated subcutaneously (s.c.) with a suspension of HepG2 cells (4×10^6/mouse) on Day 0. On Day 2, groups of five mice were injected intravenously with 1 mg/kg equivalents of D, DL or DLG. The Control group received injections of saline. Injections were carried out every other day. Tumor volume was continuously monitored using a Vernier caliper. Measurements were taken weekly and volumes were calculated according to the formula (L×W×H×0.52). […]

As to `COc1cccc2c1C(=O)c1c(O)c3c(c(O)c1C2=O)C[C@@](O)(C(=O)CO)C[C@@H]3O[C@H]1C[C@H](N)[C@H](O)[C@H](C)O1.Cl` [D, doxorubicin hydrochloride], the tumor growth inhibition result is listed as “about 40%”.
